From patent US9511120B2, “Use of the angiotensin-(1-9) peptide or derivatives thereof, use of vectors overexpressing the ACE2 enzyme that produces angiotensin-(1-9) for preparing medicaments useful for preventing, reverting, inhibiting and/or reducing hypertension and/or inducing vasodilation” (PONTIFICA UNIVERSIDAD CATÓLICA DE CHILE, priority 2012, dated 2016)
Where no end group is shown, it is not given here.

Assays:
Type in all cases: in vivo, rat
[1] = test system: hypertensive rats by administration of angiotensin II; test: Hypertension induced by angiotensin II infusion: body mass, cardiac mass, systolic blood pressure
Experimental: (§1) Rats were subjected to the model of angiotensin II infusion (Grobe et al.: Am. J. Physiol. 292: H736-42, 2007). The animals were separated randomly into the following experimental groups: controls (Sham or pseudo-operated), infused with angiotensin II (300 ng/kg min), infused with angiotensin II and angiotensin-(1-9) (300 ng/kg min and 602 ng/kg min, respectively), and then infused with angiotensin II, angiotensin-(1-9) and the angiotensin-(1-7) receptor antagonist, A779 (300 ng/kg min, 602 ng/kg min, and 100 ng/kg min, respectively). In all cases the pumps operated at a flow of 0.5 μL/h and were implanted in the right jugular vein through a catheter fitted in an intrascapular subcutaneous pocket under anesthesia with ketamine HCl/xylazine (35 and 7 mg/kg i.p., respectively), for a period of 14 days.
(§2) Systolic blood pressure (SBP) was measured by the tail plethysmographic method in the animals. To such end, rats were lightly anesthetized with ethyl ether. The measurement was performed once a week by researchers blind to the treatment (Ocaranza et al. J. Hypertens. 20:413-20, 2002).
(§3) The degree of cardiac hypertrophy (CH) was measured by the ratio of the cardiac mass (CM), the body mass (BM) and relative cardiac mass (RCM; [CM/BM]*100) (Ocaranza et al., J. Hypertens. 28:1054-1064, 2010).
Four experimental groups of rats were established as described in Example 1. Group 1 corresponds to rats which were infused with saline (Sham). Group 2 corresponds to rats which were infused with only angiotensin II. Group 3 correspond to rats which were co-infused with angiotensin II and angiotensin-(1-9). And Group 4 corresponds to rats which were co-infused with angiotensin II, angiotensin-(1-9) and A779.

[2] = test system: thoracic aortas of hypertensive rats by angiotensin II infusion; test: Angiotensin II infusion model: aortic hypertrophy by morphometry; settings: thoracic aorta, 14 days infusion
Experimental: as §1
(§4) Aortic hypertrophy was determined by morphometry. Sections of the descending aorta of 5 μm thick, which were previously fixed in Bouin (1.3% picric acid, 9.5% formaldehyde and 4.8% acetic acid) for 24 hours, embedded in paraffin and stained with hematoxylin-eosin, were used, to be examined later in a light microscope as described by Igase et al. (Am. J. Physiol. 289:H1013-9, 2005). Briefly, images of the aortas were captured by a video camera (Nikon) fixed to a microscope (Nikon), and projected on a monitor; using the software Nis-Element. Lumen areas (LA) and total areas (TA) were calculated and recorded. The tunica media area (TMA) was obtained from the difference between the TA and LA of the aorta. The tunica media thickness (TMT) was defined as the region delimited by the external elastic lamina (EEL) and internal elastic lamina (IEL).

[3] = test system: hypertensive rats by clamping the renal artery (Goldblatt model); test: Goldblatt model (GB, 2 kidneys, 1 clip): body weight, cardiac mass, systolic blood pressure
Excerpt: (§5) Lewis normotensive rats (weight 150±10 g), which were separated randomly into the experimental hypertension model group or GB (Ocaranza et al. J. Hypertens. 20:413-20, 2002) or control group (S) were used. The latter corresponded to pseudo-operated animals. All animals were maintained under controlled conditions of light and darkness and had free access to food and water. Four weeks after surgery and at a blood pressure above 140 mmHg, GB rats were randomized for the chronic administration of angiotensin-(1-9) through an osmotic pump (602 ng kg^−1min^−1) via the jugular vein during two weeks. The animals were euthanized after 6 weeks post-surgery.
as §2, §3

[4] = test system: cardiomyocyte hypertrophy of hypertensive rats by pressure overload; test: Goldblatt model: cardiomyocyte area and perimeter; settings: GB rats
Excerpt: as §5
The middle portion of the left ventricle (LV) was dehydrated at room temperature for 24 h in Bouin and then embedded in paraffin. Sections of 10-15 μm thick were taken and stained with hematoxylin-eosin, to be examined later in a light microscope in order to observe their general morphological characteristics. Cardiomyocyte size was determined according to Nakamura et al. (Circulation, 98:794-9, 1998). […] The cardiomyocyte area and perimeter were measured and recorded, using the Nis-Element program (Ocaranza et al. J. Hypertens., 28:1054-64, 2010). All measurements were performed by a blinded observer, and at least 80 images of cells per animal, which were randomly selected, were analyzed.

[5] = test system: thoracic aortas of hypertensive rats by pressure overload; test: Goldblatt model: aortic hypertrophy by morphometry; settings: GB rats, thoracic aorta
Excerpt: as §5, §4

ED-1 = test: Goldblatt model: ED-1 levels of the aortic wall (immunohistochemistry); settings: GB rats
Excerpt: as §5
Immunostaining was performed using the streptavidin-biotin-peroxidase method with the inflammation marker ED-1. This is a glycoprotein expressed primarily in the lysosomal membrane of active macrophages (Leskovar et al. J. Exp. Biol. 203:1783-1795, 2000).
In order to block endogenous peroxidase, the samples were deparaffinized, rehydrated and treated with 10% H2O2 in methanol for 1 h. Then, the tissues were incubated with monoclonal antibody anti ED-1 (clone MCA341R, Serotec) diluted 1/1000 in 1% BSA prepared in PBS-0.05% Tween 20 overnight at 4° C. in a humid chamber. The sections were washed three times with 1×PBS-0.05% Tween 20, pH 7.4 for 5 min and incubated with the biotinylated secondary antibody for 30 min at room temperature. […]

DRVYIHPFH
SBP 1st week ([1]; 1st week of infusion): 141 ± 9 mmHg
SBP 2nd week ([1]; 2nd week of infusion): 139 ± 11 mmHg
Initial SBP ([1]; baseline, tail plethysmography): 123 ± 11 mmHg
decrease of SBP as compared to angiotensin II ([1]; co-administration with angiotensin II): 10%
CM ([1]; rats, infusion for 14 days): 984 ± 26 mg
RCM (MV/MC) ([1]; rats, infusion for 14 days): 386 ± 36
ratio of tunica media area (TMA) to LA [2]: significantly prevented the increase
thickness of the tunica media (TMT) [2]: significantly prevented the increase
decrease of systolic blood pressure ([3]; GB rats, from week 1 after the administration, maintained 2 weeks): 15%
CM ([3]; GB rats, two weeks treatment): 0.37 ± 0.02 ^ g
RCM ([3]; GB rats, two weeks treatment): 0.84 ± 0.04 mg/g
RCM ([3]; hypertensive rats vs. 400±1 in GB, not statistically significant): 380±2
BW (as printed in text) ([3]; rats with HTN vs. untreated GB animals 0.93±0.04): 0.84 ± 0.03 g
decrease of cardiomyocyte area as compared to hypertensive rats [4]: 16%
decrease of cardiomyocyte perimeter as compared to hypertensive rats [4]: 22%
increase in TMA [5]: reduced significantly
increase in TMA/AL [5]: reduced significantly
increase in TMT [5]: reduced significantly
decrease of ED-1 levels (ED-1): 82%
